# Laboratory results from US8647643B2, “Farnesoid-X-receptor antagonist as a vaccine adjuvant” (priority 2008, dated 2014).
# Experiments:
# rHBsAg antigen = assay: Anti-HBsAg antibody titers after immunization of rats with rHBsAg plus BB adjuvant; assay type: in vivo; conditions: Wistar rats, rHBsAg 10 μg intramuscular day 0, serum every 14 days; BB-50 uM, BB-5 uM
# [1] = test system: rDNA coding Rabies antigen; parameters: species or system Swiss albino mice; conditions: mouse, in vivo
# [2] = test system: inactivated rabies virus (Rabipur); parameters: species or system mice; conditions: mouse, in vivo
# [3] = test system: Recombinant NE protein of hepatitis E virus; assay: Sero-conversion after recombinant NE protein of hepatitis E virus mixed with BB; assay type: in vivo; conditions: 1 μg NE protein with 5 μM of BB, intramuscularly
# [4] = test system: cancer cells (Mia-paca 2); assay: Interferon gamma ELISPOT on splenocytes after immunization with cancer cells with/without BB; assay type: in vivo, mice
# [5] = Water solubility (statement); assay type: physicochemical
structure (smiles),measurement,setting,value
"CC(=O)C1=CC[C@H]2[C@@H]3CC=C4C[C@@H](O)CC[C@]4(C)[C@H]3CC[C@]12C [BB, 3β-hydroxy-5,16-pregnadien-20-one]",ranking as adjuvant (anti-HBsAg antibodies),rHBsAg antigen,lead adjuvants
same,"day on which antibody titers are protective, after 1st dose of vaccine",[1],28 days
same,time the titers remained protective,[1],about 100 days
same,antibody response compared with rabies vaccine without adjuvant,[2],faster and stronger response
same,day on which titers were protective,[2],14 days
same,sero-conversion,[3]; after 2nd injection given 2 weeks later,100%
same,sero-conversion,[3]; day 14 after 1st injection,60%
same,effect of the generated immune response on tumor size,[4]; BB with cancer cells (Mia-paca 2),reduction of tumor size
same,IFN-g ELISPOT response relative to the mycobacterium adjuvanted group,"[4]; doses day 1 and day 21, splenocytes day 28",more then three times greater response
same,water solubility,[5],water insoluble
